Patent US20050037989A1, “Inhibition of gene function by delivery of polynucleotide-based gene expression inhibitors to mammalian cells in vivo” (priority 2001, published 2005)
d = 2'-deoxy (DNA); r = 2'-OH (RNA)

Legend:
[1] = system: HMGCR mRNA in primary hepatocytes; experiment: HMGCR mRNA in primary hepatocytes cultured with anti-HMGCR siRNA and/or atorvastatin (qPCR); type: cell-based, C57B6 mice; settings: siRNA alone, 24 hours
Experimental: qPCR assays. Quantitative, real-time PCR was performed using the Bio-Rad icycler system and iCycler reagents as recommended by the manufacturer. The primers used to amplify HMGCR sequences were SEQ ID 17 and SEQ ID 31.
Total RNA from these cells was isolated and transcribed into cDNA using an oligo-dT primer and reverse transcriptase. Subsequently, HMGCR levels were assayed using quantitative, real-time PCR.

[2] = system: mouse HMG CoA reductase mRNA; experiment: Serum triglyceride levels after tail vein injection of siRNA against HMG CoA reductase; type: in vivo, Apoetm1Unc mice; settings: for Triglyceride levels: absorbance at 520 nm
Experimental: Group A (series2) mice (5 mice) were each injected with 50 μg of an siRNA directed against mouse HMG CoA reductase mRNA. Group B (Series 1) mice (5 mice) were an uninjected control group. Group A and Group B animals were bled 7 days before, 2 days after, 4 days after, and 7 days after the injection. Serum samples were stored at −20° C. until all timepoints had been collected. Each group's serum samples from a given time-point were pooled prior to the triglyceride assays. Triglyceride assays were performed in quintuplicate.
A total of 50 μg of siRNA-HMGCR was dissolved in 2.2 ml Ringer's solution (147 mM NaCl, 4 mM KCl, 1.13 mM CaCl2), and injected into the tail vein of ApoE (−/−) mice over 7-12 seconds. Control mice were not injected and are referred to here as naive. Each mouse was bled from the retro-orbital sinus at various times prior to and after injection. Cells and clotting factors were pelleted from the blood to obtain serum. The serum triglyceride levels were then assayed by a enzymatic, colorimetric assay using the Infinity Triglyceride Reagent (Sigma Co.).
Triglyceride assays. Serum samples were diluted 1:100 in the Infinity Triglyceride Reagent (2 μl in 200 μl) in a clear, 96-well plate. Each assay plate was then incubated at 37° C. for five minutes, removed and allowed to cool to room temperature. Absorbance was measured at 520 nm using a SpectraMax Plus plate reader (Molecular Devices, Inc). Background absorbance (no serum added) was subtracted from each reading and the resulted data was plotted versus timepoint.

siRNA-HMGCR: annealed oligomers SEQ ID 25 and SEQ ID 26, positions 2324-2344 of murine HMG CoA reductase reading frame (Examples 16, 18) (chain 1 ACAUUGUCACUGCUAUCUATT; chain 2 UAGAUAGCAGUGACAAUGUTT; sugars from the 5' end r19 d2, backbone not given here; listed as Mus musculus)
HMGCR mRNA, % of that seen in control cells [1]: approximately 20% | triglyceride levels (in words) ([2]; 50 μg siRNA tail vein, after 7 days): returned to normal levels | triglyceride levels reduced ([2]; 50 μg siRNA tail vein, after two days): 62% | triglyceride levels reduced ([2]; 50 μg siRNA tail vein, second value, printed again as after two days): 56% | Triglyceride levels ([2]; day +2, pooled serum): 0.082 ± 0.006 | Triglyceride levels ([2]; day +4, pooled serum): 0.095 ± 0.005 | Triglyceride levels ([2]; day +7, pooled serum): 0.189 ± 0.012 | Triglyceride levels ([2]; day −7 (before injection), pooled serum): 0.218 ± 0.008
